Measured values taken from paper PMC7110988 (Chemistry & Biology, 2005).
Entries after “also recorded” stand apart in the source; their conditions may differ.

What was measured:
[1] = biological target: SCV helicase (nsp13) ATPase activity (Severe acute respiratory syndrome coronavirus, UniProt P0C6X7); assay: biochemical; set-up: species or system SARS coronavirus
[2] = biological target: SCV helicase helicase activity (Severe acute respiratory syndrome coronavirus, UniProt P0C6X7); format: biochemical, SARS coronavirus
[3] = biological target: SCV helicase (nsp13) unstimulated ATPase activity (Severe acute respiratory syndrome coronavirus, UniProt P0C6X7); format: biochemical, SARS coronavirus
E. coli DnaB helicase = E. coli DnaB helicase (Escherichia coli, UniProt P0ACB0); format: biochemical
[4] = tested on: SCV (strain GZ50) in FRhK-4 cells; format: cell-based, SARS coronavirus; details: 50 μM
[5] = tested on: SCV (strain GZ50) in FRhK-4 cells; assay: microbe, parasite or virus in culture; format: cell-based, SARS coronavirus
SARS coronavirus (SCV) = details: cited from earlier work

E. coli DnaB helicase, sequence (P0ACB0 whole entry): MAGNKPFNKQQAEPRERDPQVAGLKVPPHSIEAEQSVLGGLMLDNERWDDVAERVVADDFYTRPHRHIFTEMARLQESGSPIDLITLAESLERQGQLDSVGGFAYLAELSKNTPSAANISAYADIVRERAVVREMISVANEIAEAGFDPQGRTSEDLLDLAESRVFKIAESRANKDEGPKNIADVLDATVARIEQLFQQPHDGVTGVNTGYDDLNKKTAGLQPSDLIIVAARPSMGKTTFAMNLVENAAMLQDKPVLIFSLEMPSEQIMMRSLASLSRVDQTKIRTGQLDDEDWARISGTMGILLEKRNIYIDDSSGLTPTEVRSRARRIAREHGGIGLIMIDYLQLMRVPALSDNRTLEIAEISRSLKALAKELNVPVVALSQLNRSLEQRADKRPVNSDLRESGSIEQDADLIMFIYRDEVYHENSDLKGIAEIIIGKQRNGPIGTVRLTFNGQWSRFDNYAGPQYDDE

COc1cc(CC(C)c2nc(C)c(O)c(C34OC5(O)CC(O)(CC(O)(C5)O3)O4)c2CO)ccc1O (racemic) [eubananin, 1-[6-[(2RS)-1-(4-hydroxy-3-methoxyphenyl)-2-propyl]-3-hydroxy-5-(hydroxymethyl)-2-methyl-4-pyridinyl]-2,8,9-trioxaadamantane-3,5,7-triol]
IC50 [1]: 2800 nM | Inhibition of helicase activity (in words) [2]: effective inhibitors; also recorded: the best inhibitors of DNA-unwinding

Cc1ncc(CO)c(C23OC4(O)CC(O)(CC(O)(C4)O2)O3)c1O [bananin, 1-[3-hydroxy-5-(hydroxymethyl)-2-methyl-4-pyridinyl]-2,8,9-trioxaadamantane-3,5,7-triol]
IC50 [1]: 2300 nM | Mechanism of inhibition of ATPase activity [1]: noncompetitive inhibitor | Inhibition of unstimulated basal ATPase activity [3]: not an effective inhibitor; also recorded: Far weaker inhibition | Inhibition of unstimulated basal ATPase activity at 100 µM ([3]; 100 µM): slight inhibition | Inhibition of helicase activity (in words) [2]: effective inhibitors; also recorded: the best inhibitors of DNA-unwinding | Inhibition of DnaB helicase (E. coli DnaB helicase): did not inhibit | Cytopathic effects relative to control infection [4]: distinctly reduced | Reduction of viral titre [5]: ~50% | Viral titre [5]: almost zero | Viral titre, % of untreated control infection [5]: below 10% | EC50 ([5]; Severe acute respiratory syndrome coronavirus, FRhK-4, read-out: EC50 (antiviral, viral titre)): < 10000 nM | Specificity index (CC50/EC50) (FRhK-4 cells): over 39

NC(=O)c1ncn([C@@H]2O[C@H](CO)[C@@H](O)[C@H]2O)n1 [ribavirin]
Activity in cell culture (SARS coronavirus (SCV)): lack of activity

COc1cc(C23OC4(O)CC(O)(CC(O)(C4)O2)O3)ccc1O [vanillinbananin, 1-(4-hydroxy-3-methoxyphenyl)-2,8,9-trioxaadamantane-3,5,7-triol]
IC50 [1]: 680 nM | Inhibition of helicase activity (in words) [2]: effective inhibitors; also recorded: the best inhibitors of DNA-unwinding
